Assay results taken from US9732053B2, “1-[2-(2,4-dimethylphenylsulfanyl) phenyl]piperazine acetate in crystalline form” (LEK PHARMACEUTICALS D.D., priority 2013, dated 2017).
Structures can show the parent of a compound that is named as a salt.

Columns and labels:
[1] = room temperature; data from WO 2007/144005 A1 and WO 2010/121621 A1; cited from earlier work
[2] = Slurry experiments in n-heptane for thermodynamic stability (Examples 12-13); format: physicochemical; conditions: room temperature
Method: Slurry experiments were performed to determine the order of the thermodynamic stability of the solid state forms at room temperature (see also Examples 12-13 of the present invention).
35 mg of vortioxetine acetate form Ill was suspended in 0.5 mL n-heptane and stirred with a magnetic stirrer at room temperature for 4 weeks.
25 mg of vortioxetine acetate form I was suspended in 0.5 mL n-heptane and stirred with a magnetic stirrer at room temperature for 24 h.

[3] = Gravimetric moisture sorption/desorption cycle; format: physicochemical; conditions: for Δm (0-80% RH), water absorption: 25° C.; for Structural changes during moisture sorption: sorption desorption cycle, XRPD
Method: Moisture sorption isotherms were recorded with an SPSx-1μ moisture sorption analyzer (ProUmid, Ulm). The measurement cycle was started at 3% relative humidity (RH). Then the RH was increased from 5% to 75%, decreased to 0% and increased to 80% in 5% steps. Finally the RH was decreased to 0% in 10% steps and equilibrated in a last step to 35%. The time per step was set to a minimum of 1 hour and a maximum of 3 hours. If an equilibrium condition with a constant mass of ±0.01% within 1 hour was reached before the maximum time for all examined samples, the sequential humidity step was applied before the maximum time of 3 hours. If no equilibrium was achieved, the consecutive humidity step was applied after the maximum time of 3 hours. The temperature was 25±0.1° C. The final water content was determined by coulometric Karl Fischer titration.
Coulometric Karl Fischer titration was performed with a Metrohm 831 KF Coulometer equipped with a double-platinum detecting electrode, a Metrohm 832 KF Thermoprep oven (130° C.) and Hydranal Coulomat AK as Karl Fischer reagent.

[4] = Water solubility determination of vortioxetine acetate form III (Example 9); format: physicochemical
Method: 100 μL water was added to 100.34 mg of vortioxetine acetate form Ill. The mixture was vigorously shaken for 2 min and placed at 25° C. for 15 min. The solid was not completely dissolved, therefore a further 100 μL of water was added and the dissolving procedure repeated. […] According to […]

[5] = Stress tests at increased relative humidity with XRPD analysis (Examples 10-11); format: physicochemical
Method: X-ray powder diffractograms (XRPD) were obtained with an X'Pert PRO diffractometer (PANalytical, Almelo, The Netherlands) equipped with a theta/theta coupled goniometer in transmission geometry, programmable XYZ stage with well plate holder, Cu-Kα1,2 radiation source (wavelength 0.15419 nm) and a solid state PIX'cel detector. The diffractograms were recorded at a tube voltage of 45 kV, tube current of 40 mA applying a step size of 0.013° 2-theta with 40 s per step (255 channels) in the angular range of 2° to 40° 2-theta at ambient conditions. A typical precision of the 2-theta values is in the range of about ±0.2° 2-theta. Thus a diffraction peak that appears at 5.0° 2-theta can appear between 4.8 and 5.2° 2-theta on most X-ray diffractometers under standard conditions.
42 mg of vortioxetine acetate form Ill was stressed at 40° C./75% RH for 4 weeks.
34 mg of vortioxetine acetate form Ill were stressed at RT/97% RH for 4 weeks.

[6] = listed as acetate form I, acetate
[7] = listed as acetate form III, acetate

Question: For CC(O)C(=O)O.Cc1ccc(Sc2ccccc2N2CCNCC2)c(C)c1 [DL-lactate form β], which Aqueous solubility [1] is on record?
Answer: 8 mg base/mL

Question: For Br.Cc1ccc(Sc2ccccc2N2CCNCC2)c(C)c1 [HBr form α], which Aqueous solubility [1] is on record?
Answer: 2 mg base/mL

Question: For Br.Cc1ccc(Sc2ccccc2N2CCNCC2)c(C)c1 [HBr form β], which Aqueous solubility [1] is on record?
Answer: 1.2 mg base/mL

Question: With Cc1ccc(Sc2ccccc2N2CCNCC2)c(C)c1 [HCl MH] as the molecule, how does the Aqueous solubility [1] read?
Answer: 2 mg base/mL

Question: Which Aqueous solubility [1] does the source give for Cc1ccc(Sc2ccccc2N2CCNCC2)c(C)c1.Cl [HCl] here?
Answer: 3 mg base/mL

Question: For CC(O)C(=O)O.Cc1ccc(Sc2ccccc2N2CCNCC2)c(C)c1 [L-lactate form MH2], which Aqueous solubility [1] is on record?
Answer: 26 mg base/mL

Question: Which Aqueous solubility [1] does the source give for Cc1ccc(Sc2ccccc2N2CCNCC2)c(C)c1 [free base, 1-[2-(2,4-Dimethylphenylsulfanyl)phenyl]piperazine] here?
Answer: 0.1 mg base/mL

Question: Which results are given for CC(=O)O.Cc1ccc(Sc2ccccc2N2CCNCC2)c(C)c1 [vortioxetine acetate form I, 1-[2-(2,4-dimethylphenylsulfanyl)phenyl]piperazine acetate]?
Answer: Structural changes after slurry (XRPD) ([2]; stirred 24 h, acetate): transformed to form III; Structural changes after slurry (XRPD) ([2]; stirred 24 h, listed as Form I of vortioxetine acetate): undergoes a transition to form III; Δm (0-80% RH), water absorption [3, 6]: +2%; Δm (0-80% RH), water absorption ([3]; listed as form I, acetate): 2%; Structural changes during moisture sorption [3, 6]: partial decomposition to free base; Structural changes during moisture sorption ([3]; listed as form I, acetate): partial decomposition of the acetate salt to the free base

Question: Which results are given for CC(=O)O.Cc1ccc(Sc2ccccc2N2CCNCC2)c(C)c1 [vortioxetine acetate form III, 1-[2-(2,4-dimethylphenylsulfanyl)phenyl]piperazine acetate]?
Answer: Aqueous solubility calculated as free base ([4]; 25° C. / room temperature, converted from acetate salt by Equation 1): 278 mg base/mL; solubility ([4]; thermodynamic from solid, 25° C., 100.34 mg dissolved in 300 μL, read-out: Solubility of the acetate salt in water): 334 mg/mL; Structural changes after slurry (XRPD) ([2]; stirred 4 weeks, acetate): does not undergo any transformation; Structural changes after slurry (XRPD) ([2]; stirred 4 weeks, listed as vortioxetine acetate form Ill): no structural changes; Structural changes after stress (XRPD) ([5]; 40° C./75% RH for 4 weeks): no structural changes; Structural changes after stress (XRPD) ([5]; RT/97% RH for 4 weeks): no structural changes; Δm (0-80% RH), water absorption [3, 7]: +0.4%^; Hygroscopicity according to European Pharmacopoeia ([3]; gravimetric moisture sorption desorption curve, FIG. 6): only slightly hygroscopic; Water content ([3]; relative humidity of about 0%): about 0.3%; Water content ([3]; relative humidity of about 80%, acetate): less than 0.7%; Water content ([3]; relative humidity of about 80%, listed as form III of vortioxetine acetate, acetate): about 0.7%; Structural changes during moisture sorption [3, 7]: no changes from 0-97% RH

Question: For fumarate, which Aqueous solubility [1] is on record?
Answer: 0.4 mg base/mL

Question: For maleate, which Aqueous solubility [1] is on record?
Answer: ≈1 mg base/mL

Question: For phosphate, which Aqueous solubility [1] is on record?
Answer: ≈1 mg base/mL
